Source: patent US9493434B2, “Substituted indenes as medicaments” (LABORATORIOS DEL DR. ESTEVE S.A., priority 2012, dated 2016)
Structures can show the parent of a compound that is named as a salt.

biological target: T1, σ1-receptor (Cavia porcellus, UniProt Q60492); test: σ1-receptor binding assay, [3H]-(+)-pentazocine, guinea pig brain membranes; conditions: radioligand [3H]-(+)-pentazocine 5.0 nM, 150 min at 37° C., nonspecific binding with 1 μM haloperidol
T1 construct: Guinea pig brains were homogenized in 10 vols; (w/v) of Tris-HCl 50 mM 0.32 M sucrose, pH 7.4; from tissue; host or cells: guinea pig brain membranes
Experimental: Brain membrane preparation and binding assays for the σ1-receptor were performed as described (DeHaven-Hudkins, D. L., L. C. Fleissner, and F. Y. Ford-Rice, 1992, Characterization of the binding of [^3H](+)pentazocine to […] recognition sites in guinea pig brain, Eur. J. Pharmacol. 227, 371-378) with some modifications. Guinea pig brains were homogenized in 10 vols. (w/v) of Tris-HCl 50 mM 0.32 M sucrose, pH 7.4, with a Kinematica Polytron PT 3000 at 15000 r.p.m. for 30 s. The homogenate was centrifuged at 1000 g for 10 min at 4° C. and the supernatants collected and centrifuged again at 48000 g for 15 min at 4° C. The pellet was resuspended in 10 volumes of Tris-HCl buffer (50 mM, pH 7.4), incubated at 37° C. for 30 min, and centrifuged at 48000 g for 20 min at 4° C. Following this, the pellet was re-suspended in fresh Tris-HCl buffer (50 mM, pH 7.4) and stored on ice until use.
The radioligand used was [^3H]-(+)-pentazocine at 5.0 nM and the final volume was 200 μl. The incubation was initiated with the addition of 100 μl of membrane at a final tissue concentration of approximately 5 mg tissue net weight/mL and the incubation time was 150 m. at 37° C. After incubation, the membranes were collected onto pretreated glass fiber filterplate (MultiScreen-FC, Millipore), with polyethylenimine 0.1%. The filters were washed two times with 200 μl of washing buffer (50 mM Tris CI, pH=7.4) and then 25 μl of Ecoscint H liquid scintillation cocktail were added. Microplates were allowed to set for several hours and then quantified by liquid scintillation spectrophotometry (1450 Microbeta, Wallac). Nonspecific binding was determined with 1 μM haloperidol.

T1 sequence (Q60492 whole entry): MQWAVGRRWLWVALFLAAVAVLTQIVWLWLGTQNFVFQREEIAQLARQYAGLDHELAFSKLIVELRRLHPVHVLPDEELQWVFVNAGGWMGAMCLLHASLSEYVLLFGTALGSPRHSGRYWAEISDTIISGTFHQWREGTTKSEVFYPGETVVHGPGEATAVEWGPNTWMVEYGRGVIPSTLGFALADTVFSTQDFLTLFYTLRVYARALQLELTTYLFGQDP

| Structure (SMILES) | Ki [nM] |
| --- | --- |
| CN1CCN(CCC2=CCc3c2cccc3-c2cccc(F)c2)CC1 [Compound 17, 1-(2-(7-(3-fluorophenyl)-1H-inden-3-yl)ethyl)-4-methylpiperazine maleate] | 14 |
| CN1CCN(CCC2=CCc3c2cccc3-c2ccncc2F)CC1 [Compound 4, 1-(2-(7-(3-fluoropyridin-4-yl)-1H-inden-3-yl)ethyl)-4-methylpiperazine maleate] | 24 |
| CC1=C(CCN2CCN(C)CC2)c2cccc(-c3ccccc3)c2C1 [Compound 12, 1-methyl-4-(2-(2-methyl-7-phenyl-1H-inden-3-yl)ethyl)piperazine maleate] | 51 |
| CN1CCN(CCC2=CCc3c2cccc3-c2ccccc2)CC1 [Compound 5, 1-methyl-4-(2-(7-phenyl-1H-inden-3-yl)ethyl)piperazine maleate] | 13 |
| Fc1ccc(-c2cccc3c2CC=C3CCN2CCCCCC2)cc1 [Compound 2, 1-(2-(7-(4-fluorophenyl)-1H-inden-3-yl)ethyl)azepane hydrochloride] | 12 |
| Clc1ccc(-c2cccc3c2CC=C3CCN2CCOCC2)cc1Cl [Compound 19, 4-(2-(7-(3,4-dichlorophenyl)-1H-inden-3-yl)ethyl)morpholine maleate] | 12 |
| Fc1ccc(-c2cccc3c2CC=C3CCN2CCOCC2)cc1 [Compound 13, 4-(2-(7-(4-fluorophenyl)-1H-inden-3-yl)ethyl)morpholine maleate] | 4 |
| CN1CCN(CCC2=CCc3c2cccc3-n2ccnn2)CC1 [Compound 27, 1-(2-(7-(1H-1,2,3-triazol-1-yl)-1H-inden-3-yl)ethyl)-4-methylpiperazine maleate] | 185 |
| CN1CCN(CCC2=CCc3c2cccc3-c2cccnc2)CC1 [Compound 35, 1-methyl-4-(2-(7-(pyridin-3-yl)-1H-inden-3-yl)ethyl)piperazine maleate] | 61 |
| CN1CCN(CCC2=CCc3c2cccc3-c2cncnc2)CC1 [Compound 29, 5-(3-(2-(4-methylpiperazin-1-yl)ethyl)-1H-inden-7-yl)pyrimidine maleate] | 168 |
| Fc1ccc(-c2cccc3c2CC=C3CCN2CCN(c3ccccc3)CC2)cc1 [Compound 14, 1-(2-(7-(4-fluorophenyl)-1H-inden-3-yl)ethyl)-4-phenylpiperazine maleate] | 24 |
| CN1CCN(CCC2=CCc3c2cccc3-c2ccsc2)CC1 [Compound 26, 1-methyl-4-(2-(7-(thiophen-3-yl)-1H-inden-3-yl)ethyl)piperazine maleate] | 7 |
| COc1ccc(-c2cccc3c2CC=C3CCN2CCN(C)CC2)cc1 [Compound 22, 1-(2-(7-(4-methoxyphenyl)-1H-inden-3-yl)ethyl)-4-methylpiperazine maleate] | 129 |
| C1=C(CCN2CCOCC2)c2cccc(-c3ccsc3)c2C1 [Compound 25, 4-(2-(7-(thiophen-3-yl)-1H-inden-3-yl)ethyl)morpholine maleate] | 6 |
| CN1CCN(CCC2=CCc3c2cccc3-c2ccc(F)cc2)CC1 [Compound 16, 1-(2-(7-(4-fluorophenyl)-1H-inden-3-yl)ethyl)-4-methylpiperazine maleate] | 12 |
| CN1CCN(CCC2=CCc3c2cccc3-c2ccnc(F)c2)CC1 [Compound 33, 1-(2-(7-(2-fluoropyridin-4-yl)-1H-inden-3-yl)ethyl)-4-methylpiperazine maleate] | 29 |
| COc1ccc(-c2cccc3c2CC=C3CCN2CCN(C)CC2)cn1 [Compound 36, 1-(2-(7-(6-methoxypyridin-3-yl)-1H-inden-3-yl)ethyl)-4-methylpiperazine maleate] | 37 |
| Clc1cccc(N2CCN(CCC3=CCc4c3cccc4-c3ccccc3)CC2)c1 [Compound 7, 1-(3-chlorophenyl)-4-(2-(7-phenyl-1H-inden-3-yl)ethyl)piperazine maleate] | 63 |
| CN1CCN(CCC2=CCc3c2cccc3-c2ccncc2)CC1 [Compound 30, 1-methyl-4-(2-(7-(pyridin-4-yl)-1H-inden-3-yl)ethyl)piperazine maleate] | 26 |

| Structure (SMILES) | Ki [nM] |
| --- | --- |
| C1=C(CCN2CCC(c3ccccc3)CC2)c2cccc(-c3ccccc3)c2C1 [Compound 10, 4-phenyl-1-(2-(7-phenyl-1H-inden-3-yl)ethyl)piperidine maleate] | 13 |
| CN1CCN(CCC2=CCc3c2cccc3-c2ccnn2C)CC1 [Compound 38, 1-methyl-4-(2-(7-(1-methyl-1H-pyrazol-5-yl)-1H-inden-3-yl)ethyl)piperazine maleate] | 30 |
| Fc1cccc(-c2cccc3c2CC=C3CCN2CCOCC2)c1 [Compound 18, 4-(2-(7-(3-fluorophenyl)-1H-inden-3-yl)ethyl)morpholine maleate] | 4 |
| Cc1noc(C)c1-c1cccc2c1CC=C2CCN1CCN(C)CC1 [Compound 28, 3,5-dimethyl-4-(3-(2-(4-methylpiperazin-1-yl)ethyl)-1H-inden-7-yl)isoxazole maleate] | 36 |
| C1=C(CCN2CCCCC2)c2cccc(-c3ccccc3)c2C1 [Compound 8, 1-(2-(7-phenyl-1H-inden-3-yl)ethyl)piperidine maleate] | 7 |
| C1=C(CCN2CCN(c3ccccc3)CC2)c2cccc(-c3ccccc3)c2C1 [Compound 6, 1-phenyl-4-(2-(7-phenyl-1H-inden-3-yl)ethyl)piperazine maleate] | 31 |
| Fc1ccc(-c2cccc3c2CC=C3CCN2CCCCC2)cc1 [Compound 15, 1-(2-(7-(4-fluorophenyl)-1H-inden-3-yl)ethyl)piperidine maleate] | 8 |
| COc1ccc(-c2cccc3c2CC=C3CCN2CCOCC2)cc1 [Compound 21, 4-(2-(7-(4-methoxyphenyl)-1H-inden-3-yl)ethyl)morpholine maleate] | 53 |
| CN1CCCN(CCC2=CCc3c2cccc3-c2ccncc2)CC1 [Compound 31, 1-methyl-4-(2-(7-(pyridin-4-yl)-1H-inden-3-yl)ethyl)-1,4-diazepane maleate] | 29 |
| CC1=C(CCN2CCOCC2)c2cccc(-c3ccccc3)c2C1 [Compound 11, 4-(2-(2-methyl-7-phenyl-1H-inden-3-yl)ethyl)morpholine maleate] | 28 |
| C1=C(CCN2CCOCC2)c2cccc(-c3ccccc3)c2C1 [Compound 1, 4-(2-(7-phenyl-1H-inden-3-yl)ethyl)morpholine maleate] | 3 |
| CN1CCN(CCC2=CCc3c2cccc3-c2ccc(Cl)c(Cl)c2)CC1 [Compound 20, 1-(2-(7-(3,4-dichlorophenyl)-1H-inden-3-yl)ethyl)-4-methylpiperazine maleate] | 25 |
| C1=C(CCN2CCCCCC2)c2cccc(-c3ccccc3)c2C1 [Compound 9, 1-(2-(7-phenyl-1H-inden-3-yl)ethyl)azepane maleate] | 7 |
| CN1CCN(CCC2=CCc3cc(-c4ccncc4)ccc32)CC1 [Compound 40, 1-methyl-4-(2-(6-pyridin-4-yl)-1H-inden-3-yl)ethyl)piperazine maleate] | 143 |
| COc1ccc(-c2cccc3c2CC=C3CCN2CCOCC2)cn1 [Compound 39, 4-(2-(7-(6-methoxypyridin-3-yl)-1H-inden-3-yl)ethyl)morpholine maleate] | 180 |
| C1=C(CCN2CCOCC2)c2cccc(-c3ccncc3)c2C1 [Compound 3, 4-(2-(7-(pyridin-4-yl)-1H-inden-3-yl)ethyl)morpholine maleate] | 47 |
| C1=C(CCN2CCOCC2)c2cccc(-c3cccnc3)c2C1 [Compound 34, 4-(2-(7-(pyridin-3-yl)-1H-inden-3-yl)ethyl)morpholine maleate] | 82 |
| CN1CCN(CCC2=CCc3cc(-c4ccnc(F)c4)ccc32)CC1 [Compound 41, 1-(2-(6-(2-fluoropyridin-4-yl)-1H-inden-3-yl)ethyl)-4-methylpiperazine maleate] | 120 |
| CN1CCN(CCC2=CCc3c2cccc3-c2ccc(F)nc2)CC1 [Compound 37, 1-(2-(7-(6-fluoropyridin-3-yl)-1H-inden-3-yl)ethyl)-4-methylpiperazine maleate] | 34 |
